Results reported in patent publication US7022315B2, “Administration of a thiol-based chemoprotectant compound” (Oregon Health & Science University, priority 2000, dated 2006).
Marks after values point to notes of the source that are not given here.

What was measured:
[1] = Radiolabeled NAC tissue delivery by route of administration; type: in vivo, rat; conditions: for 14C-NAC found in brain: Example 10
Experimental: Radiolabeled NAC in combination with unlabeled low dose NAC (140 mg/kg) or high dose NAC (1200 mg/kg) was administered to rats with the following routes of infusion: i.v. (open bars), intra-arterially into the right carotid artery (striped bars), intra-arterial via the left carotid artery with left internal artery occlusion (aortic infusion) (black bars), and intra-arterial (right carotid) with BBBD (cross hatched bars). Radiolabel in tissue homogenates is expressed as the mean and standard error of the % administered dose of 14C-NAC per gram of tissue (n=3 rats per group). Significant differences from i.v. delivery are indicated by *P<0.05 and **P<0.001.
In this experiment, radiolabeled NAC was administered to rats by three different routes. Liver and kidney tissue, in addition to the ipsilateral and contralateral hemispheres of the brain, were analyzed for radioactivity. Results are shown as the percent of the injected radioactive dose per gram of tissue. Route indicates intravenous (i.v.), intra-arterial into the right carotid artery (i.a.), or left carotid with internal artery occlusion and aortic infusion (left carotid aortic infusion). The left carotid aortic infusion intra-arterial method uses descending aorta placement of the catheter tip and NAC administration.
This example tested whether the inventive method for intra-arterial infusion (via the left carotid artery, with left internal artery occlusion) could reduce brain delivery of NAC and increase systemic delivery. Brain delivery was 0.04% of the injected dose with the inventive method (n=2).
The method of administration of NAC and its biodistribution was tested. Intra-arterial infusion retrograde via the left external carotid artery, with transient left internal artery occlusion, was evaluated as a mechanism to essentially perfuse via the descending aorta with limited delivery to the brain. […] The serum concentration of NAC 10 min after administration of 1200 mg/kg was 2.4 0.6 mg/ml (n=6) as determined by radiolabel remaining in the blood.

cultured tumor cells = assay: Paclitaxel cytotoxicity with BSO and NAC (WST); type: cell-based
GM294 human fibroblasts = assay: Cytoenhancement and chemoprotection in fibroblasts, WST assay; type: cell-based; conditions: independent of BSO treatment; 1000 μg/ml
Experimental: Cytotoxicity was assessed in GM294 human fibroblasts, 1×10^4 cells per well in 96 well plates, using the WST colorometric assay. […] Data are expressed as the percentage of live cells compared to control samples (without chemotherapy) and each point represents the mean±s.d. of 4 wells.

rats = assay: Protection against chemotherapy-induced myelosuppression, nadir blood counts; type: in vivo, rat; conditions: for White Cell Nadir: mean ± SE
Experimental: FIGS. 10A–10D show the results of tests on chemoprotection for chemotherapy-induced myelosuppression. Rats received tri-drug chemotherapy (Carboplatin 200 mg/m2, etoposide phosphate 100 mg/m2, melphalan 10 mg/m2), with (triangles, squares) or without (circles) chemoprotection. Blood counts were determined prior to chemotherapy, at the blood nadir (6 days), and in the recovery phase (9 days after treatment). Chemoprotection was with NAC (1200 mg/kg) administered via aortic infusion 30 min prior to chemotherapy (triangles) or NAC prior to chemotherapy and STS (8 g/m2) immediately after chemotherapy (squares). In FIG. 10B and FIG. 10D animals received BSO (10 mg/kg i.p.×3 d) prior to treatment with chemotherapy. […] Significant difference from the no protectant groups were determined by Wilcoxon/Kruskal-Walliis rank sums tests (*p<0.05, **p<0.01).
Chemoprotection against chemotherapy-induced bone marrow toxicity was determined in BSO treated and untreated animals given i.a. carboplatin, etoposide phosphate, and melphalan. NAC with or without STS was administered either about 30 minutes prior to chemotherapy or immediately after chemotherapy, and was administered either i.v. or by aortic infusion.

[2] = administered intravenously; cited from earlier work
[3] = route left carotid aortic infusion, n=2
[4] = Table 7, no BSO, aortic infusion post chemo
[5] = Table 7, no BSO, i.v. 30 min prior
[6] = Table 7, no BSO, i.v. post chemo
[7] = Table 8, BSO pretreatment, aortic infusion post chemo

CC(=O)N[C@@H](CS)C(=O)O [NAC, N-acetylcysteine]
serum concentration of NAC ([1]; 10 min after administration of 1200 mg/kg, radiolabel remaining in the blood, n=6): 2400 µg/mL
14C-NAC found in brain ([1]; aortic infusion): minimized brain delivery
14C-NAC found in brain ([1]; i.v.): negligible amounts
14C-NAC found in brain ([1]; intra-arterial, right internal carotid artery): high levels of radiolabel in the right cerebral hemisphere
liver and kidney delivery with aortic infusion ([1]; high dose (1200 mg/kg) NAC, data not shown): no change in liver and kidney delivery
Brain delivery ([1]; intra-arterial infusion via the left carotid artery with left internal artery occlusion, n=2): 0.04 % of the injected dose
liver and kidney delivery with aortic infusion ([1]; low dose of NAC (140 mg/kg)): decreased liver delivery and increased kidney delivery
left hem ([1]; route i.a. into the right carotid artery, n=3): 0.03% of the injected radioactive dose per gram of tissue
left hem ([1]; route i.v., left brain hemisphere, n=2): 0.02% of the injected radioactive dose per gram of tissue
kidney ([1]; route i.v., n=2): 0.72% of the injected radioactive dose per gram of tissue
liver ([1]; route i.v., n=2): 0.59% of the injected radioactive dose per gram of tissue
kidney [1, 3]: 1.42% of the injected radioactive dose per gram of tissue
left hem [1, 3]: 0.04% of the injected radioactive dose per gram of tissue
liver [1, 3]: 0.29% of the injected radioactive dose per gram of tissue
right hem [1, 3]: 0.04% of the injected radioactive dose per gram of tissue
effect on BSO-enhanced paclitaxel toxicity (cultured tumor cells): completely reversed the enhanced toxicity
effect on the dose response for paclitaxel alone (cultured tumor cells): did not change the dose response
chemoprotection against melphalan, cisplatin and carboplatin cytotoxicity (GM294 human fibroblasts): partially to completely chemoprotective
White Cell Nadir (rats; Table 7, no BSO, aortic infusion 30 min prior (1200 mg/kg), N=6): 69.7 ± 19.3% of baseline
Granulocyte Nadir (rats; [4]): 36.6 ± 17.0% of baseline
Platelet Nadir (rats; [4]): 26.8 ± 9.3% of baseline
White Cell Nadir (rats; Table 7, no BSO, aortic infusion post chemo, N=6): 25.9 ± 4.9% of baseline
Granulocyte Nadir (rats; [5]): 93.5 ± 28.1% of baseline
Platelet Nadir (rats; [5]): 53.3 ± 12.7% of baseline
White Cell Nadir (rats; Table 7, no BSO, i.v. 30 min prior, N=8): 51.4 ± 9.4% of baseline
Granulocyte Nadir (rats; [6]): 57.9 ± 8.8* percent of baseline
Platelet Nadir (rats; [6]): 36.8 ± 10.4% of baseline
White Cell Nadir (rats; Table 7, no BSO, i.v. post chemo, N=6): 46.0 ± 6.5* percent of baseline
Platelet Nadir (rats; Table 8, BSO pretreatment, aortic infusion 30 min prior): 23.1 ± 6.2% of baseline
White Cell Nadir (rats; Table 8, BSO pretreatment, aortic infusion 30 min prior, N=9): 20.1 ± 2.7% of baseline
Granulocyte Nadir (rats; [7]): 19.8 ± 14.7% of baseline
Platelet Nadir (rats; [7]): 11.7 ± 3.5% of baseline
White Cell Nadir (rats; Table 8, BSO pretreatment, aortic infusion post chemo, N=7): 13.9 ± 4.2% of baseline
brain levels [2]: < 5%
